Entries after “also recorded” stand apart in the source; their conditions may differ. Where two headings read alike, the source gives them in different places.
Test: Solubility of anionic lipids in ethanol during preparation
Procedure: General method 1: The components of the lipid composition (including permanently anionic lipids, permanently cationic lipids, and/or neutral lipids, or combinations thereof) were dissolved in ethanol according to the specified molar ratio to prepare an ethanol lipid complex solution (with a total lipid concentration of 100 to 600 mM). The ethanol lipid complex solution was rapidly added to RNase-free water using the ethanol injection method. After stirring for 30 minutes, the resulting lipid composition solution was filtered through a polycarbonate membrane with a pore size of 100 nm to 400 nm.
General method 2: Permanently anionic lipids or compounds were dissolved in RNase-free water to obtain RNase-free water containing permanently anionic lipids. Permanently cationic lipids and neutral lipids were dissolved in ethanol according to the specified molar ratio to prepare an ethanol lipid complex solution (with a total lipid concentration of 100 to 600 mM). The ethanol lipid complex solution was rapidly added to the RNase-free water containing permanently anionic lipids using the ethanol injection method. After stirring for 30 minutes, the resulting lipid composition solution was filtered through a polycarbonate membrane with a pore size of 100 nm to 400 nm.
The molar ratio of permanently anionic lipids, permanently cationic lipid DOTMA, and neutral lipid DOPE in the different complexes was controlled at 1:2:1, and the particle size and PDI were measured.

Row | Structure (SMILES) | Notes: solubility of the anionic lipid in ethanol | Notes: solubility of the anionic lipid in ethanol (listed as farnesyl pyrophosphate) | Notes: solubility of the anionic lipid in ethanol (phosphate sodium salt) | Notes: solubility of the anionic lipid in ethanol (listed as pA (2′-OMe) mpG)
1 | CC(C)=CCC/C(C)=C/CC/C(C)=C/CO[P@@](=O)(O)OP(=O)(O)O (stereo in doubt) [Farnesyl pyrophosphate] | Insoluble in ethanol, | lower solubility in ethanol |  | 
2 | CCCCCCCC/C=C\CCCCCCCC(=O)OC[C@H](COP(=O)([O-])OCCNC(C)=O)OC(=O)CCCCCCC/C=C\CCCCCCCC.[Na+] [ADOPE, 2-acetamidoethyl ((R)-2,3-bis(oleoyloxy)propyl) phosphate sodium salt] |  |  | good solubility in ethanol; also recorded: Soluble in ethanol, | 
3 | CCCCCCCC/C=C\CCCCCCCC(=O)O [Oleic acid] | Soluble in ethanol, |  |  | 
4 | COC1C(OP(=O)(O)OC[C@H]2O[C@@H](n3cnc4c(=O)[nH]c(N)nc43)C(O)C2O)[C@@H](COP(=O)(O)O)O[C@H]1n1cnc2c(N)ncnc21 (stereo partly drawn) [pA(2′-OMe)mpG, ((2R,3S,4S,5R)-3-(((((2R,3R,4S,5R)-5-(2-amino-6-oxo-1,6-dihydro-9H-purin-9-yl)-3,4-dihydroxytetrahydrofuran-2-yl)methoxy) (hydroxy)phosphoryl)oxy)-5-(6-amino-9H-purin-9-yl)-4-methoxytetrahydrofuran-2-yl) methyl dihydrogen phosphate] | Insoluble in ethanol, |  |  | lower solubility in ethanol
